“Also recorded” adds a separate entry of the source.
Key:
[1] = tested on: human NHE1; test: internal pH changes in PS120 fibroblasts transfected with human NHE1; format: cell-based; conditions: 5 μg/ml, FIG. 2B
Experimental: (§1) PS120 fibroblasts transfected with rabbit: or human NHE1 were grown as described above.

[2] = tested on: rabbit NHE1; test: internal pH changes in PS120 fibroblasts transfected with rabbit NHE1; format: cell-based; conditions: 5 μg/ml, FIG. 2A
Experimental: as §1

[3] = tested on: bovine pulmonary endothelial cells; test: growth inhibition of endothelial cells in vitro (absorbance at 600 nm); format: cell-based; conditions: 1 μg/ml, FIG. 3A
[4] = tested on: human epithelial cell line MCF 10A; test: growth inhibition of epithelial cells in vitro (absorbance at 600 nm); format: cell-based; conditions: 10 μg/ml, FIG. 3B
[5] = tested on: human foreskin fibroblasts; test: growth inhibition of fibroblasts in vitro (absorbance at 600 nm); format: cell-based; conditions: 10 μg/ml, FIG. 3C
[6] = tested on: human microvascular cells; test: inhibition of endothelial cell cord formation in vitro; format: cell-based
How it was run: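 Human microvascular endothelial cells plated on collagen matrix with VEGF and basic FGF; compound effect on cord-like structure formation scored in a standard cord formation assay.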

[7] = tested on: chick chorioallantoic membrane; test: chorioallantoic membrane (CAM) model, inhibition of capillary growth; format: in vivo; conditions: 3-Day embryo
Excerpt: The growing capillaries within the chorioallantoic membrane model (CAM model) have been used as a system in which to evaluate the effect of agents on their potential to inhibit new vessel growth. Neovascularization occurs most aggressively over the first week of embryonic development. Thereafter capillary growth is characterized by principally "elongation" rather than "de novo" formation.
In the standard assay, agents are applied locally to a region of the embryo over which neovascularization will occur. Agents are assessed by their ability to inhibit this process, as evaluated by visual examination about 7 days after application. […] The assay utilized is described in detail in Auerbach et al., Pharm. Ther. 51, 1991, 1-11.

[8] = tested on: chick embryo vitelline capillaries; test: chick embryo vitelline capillary regression assay; format: in vivo
Experimental: Using the chick embryo vitelline capillaries assay, compounds were tested for their ability to induce capillary regression. Each compound was applied in 0.1 ml of 15% Ficol 400 and PBS onto the embryo, and vascular regression was assessed after 60 minutes.
The 3-day chick embryo consists of an embryonic disc from which numerous vessels emerge and return, forming a "FIG. 8"-shaped structure--the embryo in the center with vascular loops extending outward over both poles. […] Following a lag period of around 15 minutes, the constriction of continuity between capillary and secondary vessels, generally on the "venous" side, was observed. Continued pulsatile blood flow progressed, resulting in a "swelling" of the blind tube, followed by a pinching off of the remaining connection and formation of an enclosed vascular sac resembling a "blood island." This process progressed until only the largest vessels remained intact.

[9] = tested on: B16 melanoma; test: suppression of growth of B16 melanoma in C57B mice; format: in vivo, mouse
Experimental: The growth of B16 melanoma in C57B mice is dependent upon neovascularization.
Using the growth of B16 melanoma cells in C57B mice, a recognized model for the evaluation of inhibitors of angiogenesis on the growth of cancers, the effects of subcutaneous, intraperitoneal and oral administration of squalamine were evaluated.
Based on the idea that tumor growth involves both the clonal expansion of a malignant cell along with the development of a supporting vascular supply, a combination of compound 1436 with squalamine was tested to determine whether it would achieve a synergistic effect on solid tumor growth. This concept was evaluated in the B16 melanoma model.
Animals were implanted with B16 melanoma followed by treatment with compound 1436 or 1256 administered in a combined schedule or separately. […] Thus, a combination of these two compounds achieves a therapeutic benefit in tumors dependent on neovascularization that may prevent metastatic spread.

[10] = tested on: melanoma 1205Lu; test: suppression of growth of human melanoma in immunocompromised (RAG-1) mice; format: in vivo, human melanoma in mouse; conditions: FIG. 5, listed as Squalamine
Excerpt: As apparent from FIG. 5, melanoma 1205Lu develops aggressively in RAG-1 mice after implantation.

[11] = mouse IV PK study; format: in vivo; conditions: i.v., mouse blood stream, HPLC
Experimental: To assess clearance, a mouse IV PK study was performed for compound 319 and squalamine. The compound was administered i.v. and blood samples were taken every 10 minutes. The concentration of the administered steroid was determined by HPLC analysis.

[12] = tested on: stage 59-60 Xenopus tadpole; test: Xenopus tadpole assay; conditions: 10 μg/ml; for tadpole response: about 1 hour
[13] = tested on: human lymphocytes; test: inhibition of mitogen (PHA)-stimulated growth of human T-cells; conditions: 10 μg/ml
Experimental: Specific assays were used to identify steroids with a particular biological activity, such as an assay for inhibition of mitogen-stimulated growth of human T-cells.
Human heparinized blood, freshly collected, was introduced into tissue culture flasks containing 10 μg/ml phytohaemagglutinin (PHA) in RPMI medium with 10% FCS. Various purified steroids were introduced subsequently at concentrations of 1, 5, and 10 μg/ml. Cultures were incubated for 72 hours, after which time colcemid was added to 1 μg/ml. Cultures were maintained for an additional 2 hours, and cells collected. Miotic figures were estimated using standard cytochemical techniques, following Giemsa staining.

[14] = target: rabbit NHE3 (Oryctolagus cuniculus, UniProt P26432)
Sequence of rabbit NHE3 (P26432 30-832): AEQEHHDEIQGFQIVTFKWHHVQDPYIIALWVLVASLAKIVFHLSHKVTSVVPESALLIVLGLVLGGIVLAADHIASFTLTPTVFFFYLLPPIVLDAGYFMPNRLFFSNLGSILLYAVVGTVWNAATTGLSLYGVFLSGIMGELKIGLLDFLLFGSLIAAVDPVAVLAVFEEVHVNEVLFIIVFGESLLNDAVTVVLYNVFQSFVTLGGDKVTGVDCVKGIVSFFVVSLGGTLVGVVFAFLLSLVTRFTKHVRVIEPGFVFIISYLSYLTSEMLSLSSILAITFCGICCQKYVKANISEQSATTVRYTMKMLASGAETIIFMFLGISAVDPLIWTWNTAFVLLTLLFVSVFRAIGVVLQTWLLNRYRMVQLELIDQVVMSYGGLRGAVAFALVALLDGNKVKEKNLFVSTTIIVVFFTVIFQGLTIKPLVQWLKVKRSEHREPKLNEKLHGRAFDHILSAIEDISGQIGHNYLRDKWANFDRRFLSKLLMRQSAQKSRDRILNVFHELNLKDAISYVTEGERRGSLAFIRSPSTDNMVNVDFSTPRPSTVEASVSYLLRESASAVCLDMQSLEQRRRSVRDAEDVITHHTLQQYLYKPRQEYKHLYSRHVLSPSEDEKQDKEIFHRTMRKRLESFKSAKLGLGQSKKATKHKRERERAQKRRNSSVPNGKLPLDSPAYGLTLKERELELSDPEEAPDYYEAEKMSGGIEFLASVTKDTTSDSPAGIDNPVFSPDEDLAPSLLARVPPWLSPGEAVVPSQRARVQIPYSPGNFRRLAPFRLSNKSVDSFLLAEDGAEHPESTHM
Experimental: Internal pH was measured either following acid loading or in the absence of an acid-loading challenge, with the results shown in FIGS. 1A and 1B.
Specifically, PS120 fibroblasts transfected with rabbit NHE3 were grown in supplemented Dulbecco's-modified Eagle's medium as described by Levine et al., J. Biol. Chem. 268, 1993, 25527-25535. […] For cells not acid-preloaded, the actual internal pH value was monitored as a function of time following addition of squalamine, with the results depicted in FIG. 1B.
PS120 fibroblasts transfected with rabbit NHE3 were grown and acid preloaded by exposure to 40 mM NH4 Cl as described above in conjunction with FIGS. 1A and 1B. Internal cellular pH changes expressed as the rate of pH recovery as a function of restored extracellular sodium ion concentration following exposure to 10 μg/ml of the compound were assayed with the fluorescent dye BCECF-AM as described above.

[15] = tested on: human umbilical venous endothelial cells; test: LPS-induced neutrophil adherence to human umbilical venous endothelial cells; conditions: 10 μg, 1.0 μg, or 0.1 μg; activated human endothelial cells
Experimental: In these experiments, approximately 2×10^5 human umbilical venous cells (passage 2-6) were plated per well. The cells were grown in serum-free media overnight. For induction, either TNF-α (40 ng/ml) was added to endothelial cells for 6 hours prior to adding neutrophils or LPS (100 ng/ml) was added for 4-6 hours. […] After activation of the endothelial cells, approximately 50×10^6 neutrophils were added per well. The plates were gently rocked for 30 minutes at room temperature, followed by removal of the media and washing in serum-free media three times and then photographing of each well. […] A monoclonal Ab to ICAM-1 was a positive control.

## CC(C)[C@@H](CC[C@@H](C)[C@H]1CC[C@H]2[C@@H]3[C@H](O)C[C@H]4C[C@@H](NCCCNCCCCN)CC[C@]4(C)[C@H]3CC[C@]12C)OS(=O)(=O)O [Compound 1256]
[1]
  inhibition of human NHE1: no inhibitory activity
[2]
  inhibition of rabbit NHE1: no inhibitory activity
[3]
  growth of bovine pulmonary artery endothelial cells: inhibited the growth
[4]
  growth of epithelial cells: no effect on the growth
[5]
  growth of fibroblasts: no effect on the growth
[6]; Homo sapiens, Endothelial cell, Table II, read-out: Minimum Effective Concentration, Cord Formation
  minimal effective concentration: 0.01 to 0.1 µg/mL
[6]; at cord-inhibiting concentrations
  cell viability or proliferation: does not appear to profoundly affect cell viability or proliferation
[7]; 0.65 μg, Assay 1
  Percentage positive: 28 Percentage
[7]; 1.25 μg, Assay 1
  Percentage positive: 18 Percentage
[7]; 1.25 μg, Assay 2
  Percentage positive: 18 Percentage
[7]; 1.25 μg, Mean
  Percentage positive: 18 Percentage
[7]; 2.5 μg, Assay 1
  Percentage positive: 35 Percentage
[7]; 2.5 μg, Assay 2
  Percentage positive: 18 Percentage
[7]; 2.5 μg, Mean
  Percentage positive: 27 Percentage
[7]; 5.0 μg, Assay 1
  Percentage positive: 91 Percentage
[7]; 5.0 μg, Assay 2
  Percentage positive: 57 Percentage
[7]; 5.0 μg, Mean
  Percentage positive: 74 Percentage
[7]; 20 μg, Assay 1, some vascular irritation
  Percentage positive: 52 Percentage
[7]; 20 μg, Assay 2, some vascular irritation
  Percentage positive: 58 Percentage
[7]; 20 μg, Mean
  Percentage positive: 55 Percentage
[7]; 40 μg, Assay 1, some vascular irritation
  Percentage positive: 50 Percentage
[7]; 40 μg, Assay 2, some vascular irritation
  Percentage positive: 13 Percentage
[7]; 40 μg, Mean
  Percentage positive: 32 Percentage
[7]; 20 and 40 μg
  vascular irritation: Some vascular irritation noted
[8]; 3- to 5-day chick embryos
  effect on vitelline capillaries: disrupt vitelline capillaries
[8]; Table 5
  relative activity: especially active
[8]; constriction between capillary and secondary vessels
  lag period: around 15 minutes
[8]; in vivo, listed as Squalamine
  hemorrhage / hemolysis: No hemorrhage was seen; also recorded: absence of hemolysis
[9]; 5 mg/kg/day alone, FIG. 12
  impact on tumor volume: no significant impact on tumor volume
[9]; mouse, in vivo
  body weight and hematologic parameters: no significant depression
[9]; subcutaneous, intraperitoneal or oral, FIGS. 4A-4C
  tumor volume: dose-dependent suppression of tumor volume
[10]
  growth of melanoma 1205Lu: suppress the growth of melanoma 1205Lu in RAG-1 mice in a dose-dependent fashion; also recorded: clear suppression of tumor growth in a dose-dependent fashion
[11]
  half-life: ~35 min
[12]
  time to death of tadpole: ≤ 2 h
  tadpole response: Vascular occlusion in fine capillaries of tail. No effect on vascular flow through hands or feet
[12]; listed as squalamine
  tadpole response: blood flow through the capillaries of the tail shut down; also recorded: common vascular occlusive effect
[13]
  inhibition of blast transformation: Some effect
[14]; 5 μg/ml squalamine, FIGS. 1A, 1B
  inhibition of NHE3 (rate of pH recovery): inhibited NHE3 with respect to proton concentration at both Km and Vmax levels
[14]; 5 μg/ml, FIG. 1B, not acid-preloaded
  resting pH of cells: the resting pH of these cells was also inhibited
[15]
  inhibition of neutrophil adherence: no inhibition

From patent US5763430A, “Method of treating a viral infection by administering a steroid compound” (priority 1995, dated 1998)
